Laboratory results taken from patent publication US11529318B2, “Devices and methods for local delivery of tacrolimus” (UNIVERSITY OF PITTSBURGH—OF THE COMMONWEALTH SYSTEM OF …, priority 2017, dated 2022).

Legend:
GAP-43 expression = experiment: GAP-43 immunohistochemistry of optic nerve after optic nerve crush; type: in vivo, Sprague-Dawley rats; details: 14 days after optic nerve crush, systemic tacrolimus treatment
[1] = test system: retinal ganglion cells (RGCs); experiment: RGC neurite growth and branching analysis; type: cell-based, rat
Experimental: (§1) Retinal ganglion cell isolation. RGCs were isolated from female and male postnatal day three (P3) Sprague-Dawley rat pups, purified by immunopanning, and cultured in NB-SATO media as previously described (Barres, Silverstein et al. 1988). The RGCs were seeded (5×10^3/cm^2) on cell culture plates coated with poly-D-lysine (70 kDa, 10 μg/mL; Sigma-Aldrich Corp., St. Louis, Mo., USA) and laminin (2 μg/mL, Sigma-Aldrich Corp.), and maintained at 37° C. in 10% CO2 for 3 days.
RGC neurite growth analysis. Neurite growth was analyzed as previously described (Steketee, Oboudiyat et al. 2014). Briefly, RGCs were fixed after 3 DIV with 4% paraformaldehyde (Alfa Aesar; 30525-89-4) in PBS, washed with PBS (2×), and permeabilized with 0.2% triton X-100 in PBS for 15 minutes. After blocking for 1 hour (1% BSA, Fisher Scientific), the RGCs were incubated in anti-β III tubulin (1:300, TUJ-1, Millipore) at 4° C. overnight, washed in PBS (3×), incubated with a FITC-rabbit anti-chicken IgY H+L (1:150, #31501, Thermo Scientific) for 3 hours, washed with PBS (3×), counterstained with the nuclear marker DAPI (1:3000, Invitrogen) for 20 minutes at room temperature, and washed in PBS (2×, 5 min. each). The RGCs were observed as above using epifluorescent microscopy and analyzed using the ImageJ plugin, NeuronJ (National Institutes of Health, Bethesda, Md., USA). Neurites were defined as any projection longer than twice the cell body, and branches were quantified as the number of secondary neurites extending from a primary neurite that originated at the cell body. At least 30 neurons were analyzed blindly as previously described for three independent experimental repeats, totaling at least 90 neurons per condition.

[2] = reference range; cited from earlier work
[3] = reference range; cited from earlier work; remark: listed apart in the source
[4] = test system: retinal ganglion cells (RGCs); experiment: RGC viability analysis (calcein/propidium iodide live/dead kit); type: cell-based, rat; details: for IC50: primary P3 rat RGCs, 3 days in vitro, 0.1 to 100 μM
Experimental: as §1
(§2) RGC viability analysis. To analyze RGC viability a calcein and propidium iodide based live/dead kit was used after 3 DIV per the manufacturer's instructions (Life Technologies, R37601). Briefly, RGC cultures were incubated in the live/dead reagent for 15 minutes at room temperature and five random fields per well were imaged at 20× using standard epi-fluorescence fluorescein and rhodamine filter sets (Zeiss, Axio Observer). Live and dead cells were analyzed using ImageJ (National Institutes of Health, Bethesda, Md., USA). All graphical data represents three independent experimental repeats.

[5] = as above; type: cell-based, rat; details: both sexes, Sprague-Dawley, rat, primary retinal ganglion cells (RGCs), 3 days in vitro
Experimental: as §1, §2

C=CC[C@@H]1/C=C(\C)C[C@H](C)C[C@H](OC)[C@H]2O[C@@](O)(C(=O)C(=O)N3CCCC[C@H]3C(=O)O[C@H](/C(C)=C/[C@@H]3CC[C@@H](O)[C@H](OC)C3)[C@H](C)[C@@H](O)CC1=O)[C@H](C)C[C@@H]2OC [tacrolimus]
GAP-43 expression in optic nerve (GAP-43 expression): no significant GAP-43 expression | share of the increase in total neurite growth manifested in axon growth [1]: 90% | neurite growth compared to all other conditions, including media control ([1]; 50 μM and 100 μM tacrolimus): significantly decreased | longest neurite (axon) growth ([1]; 3 DIV): increased | neurite branching ([1]; 3 DIV): without a change | concentration at which total neurite growth was optimal ([1]; 3 DIV, axons and dendrites): 5 µM | axonal outgrowth ([1]; assays with RGCs and microglia): did not show an increase | total and longest neurite growth ([1]; assays with RGCs only): significantly increased | therapeutic trough levels (blood) [2]: 5 to 10 ng/mL | typical therapeutic trough levels (blood) [3]: 10 to 20 ng/g | increase in RGC viability versus EtOH vehicle (70%) ([4]; 0.5 μM tacrolimus): 17.4% | IC50 ([4]; Rattus norvegicus, 72 h): 24.2 µM | effect of dosage on neuron survival (live/dead study) ([4]; discussion statement): no significant effect | IC50 [4]: 25 µM | viability at 3 days, 0.5 μM ([5]; 0.5 μM tacrolimus): 87.4% | viability at 3 days, 50 μM ([5]; 50 μM tacrolimus): 0%
